Source: US20250333733A1, “NOVEL TARGETS AGAINST OVARIAN CANCER” (UNIVERSITY OF PUERTO RICO, priority 2022, published 2025)

Columns and labels:
OVCAR3CIS cells [1] = assay: RNA-seq after siRNA-mediated CASC10 knockdown; assay type: cell-based
Experimental: The RNA sequencing library was prepared by first extracting, total RNA using the GenElute Mammalian Total RNA Miniprep Kit (Sigma). RNA sample integrity was evaluated and RNAs with a RIN >7 were used.
RNA fragmentation was carried out for 10 minutes, followed by first-and second-strand cDNA synthesis and adenylation using the TruSeq Stranded Total RNA with Illumina Ribo-Zero Plus rRNA Depletion (Illumina, San Diego, CA). The PCR products were run on a flow cell running a 50 base paired-end (2X50) recipe. The differential expression analysis was carried out using the DESeq2 (version 1.28.1) package (R version 4.0.1). As the count data was obtained in two batches, a batch correction term was introduced in the DESeq2 model using ComBat Seq to have better statistical power and control of false positives. The Ensembl IDs were converted to gene symbols and names using the org.Hs.eg.db package (version 3.11.4). […]

OVCAR3CIS cells [2] = assay: Matrigel transwell invasion assay; assay type: cell-based; conditions: vs NC-siRNA
Experimental: Cell invasion was measured using the Matrigel transwell method. OVCAR3CIS (3.0×10^4 cells/mL) or SKOVip1CIS (3.5×10^4 cells/mL) were seeded into 10 cm Petri dishes and transfected with siRNAs. Twenty-four hours later, serum-free matrigel (BD Biosciences CA, USA) was added onto the upper chambers of 24-well plates and incubated at 37° C. for polymerization. Transfected cells were collected and resuspended in serum-free and re-seeded onto the Matrigel-coated chambers. Medium containing 10% FBS was added to the lower area of the wells, and the plates incubated for 48 hours at 37° C. The medium was removed, and cells that invaded through the matrigel fixed and stained using ProtocolHema 3 Stain Set (Fisher Scientific MI, USA). Invaded cells were microscopically counted using a digital camera to capture images at a 20× resolution. The percentage of cell invasion was calculated using the NC-SIRNA condition as 100% cell invasion.

CASC10 = assay: RT-qPCR of CASC10 expression after siRNA transfection in SKOV3ip1 cells; assay type: cell-based, human; conditions: SKOV3ip1 cells as printed
Experimental: (§1) SiRNA ON-TARGET plus SMARTpool (a mixture of 4 siRNA as a single tube) and a negative control siRNA (NC-siRNA) (Sigma-Aldrich) were used for transfection studies. CASC10, was targeted by using two siRNAs targeting different regions of the CASC10 RNA (e.g., CASC10-siRNA (1) and CASC10-siRNA (2)). OVCAR3CIS or SKOV3ip1CIS cells were seeded into 12-well plates at 3.0×10^4 cells/mL. The next day, siRNAs were mixed with HiPerfect transfection reagent (Qiagen, Valencia, CA) at a 1:2 ratio (SIRNA: HiPerfect) in serum and antibiotic-free Opti-MEM medium (Gibco) and added to the cells. After twenty-four hours the media was replaced by regular culture media, and cells were cultured and used for further experiments. To assess siRNA transfection efficiency, cells were collected 24 hours after siRNA transfection.
A custom-made 384-well plate containing pre-designed forward and reverse primers was purchased from Bio-Rad (CA, USA). Total RNA was isolated from OVCAR3 and OVCAR3CIS cells using the GenElute Mammalian Total RNA Mini Kit (Millipore-Sigma, MO, USA) following the manufacturer's instructions. […] Fold-changes and cycle threshold (Ct) values were calculated by the instrument's internal software relative to OVCAR3 cells and normalized to B-actin along with controls for gDNA, PCR reaction, RT reaction, and RNA quality.

OVCAR3 cells = assay: Cell viability, Alamar blue, siRNA; assay type: cell-based; conditions: OVCAR3, any siRNA concentration tested, vs NC-siRNA
Experimental: OVCAR3CIS cells (3.0×10^4 cells/mL) or SKOV3ip1CIS (3.0×10^4 cells/mL) were seeded into 12-well plates. Twenty-four hours later, cells were transfected with 100 nM (final concentration) of each siRNA. The next day, 400 cells (OVCAR3CIS) or 1,000 cells (SKOV3ip1CIS) were seeded into 6-well plates and incubated for seven days, fixed and stained with 0.5% crystal violet in methanol. Colonies of at least 50 cells were counted using a light microscope (CKX41: Olympus, Center Valley, PA, USA) with a total magnification of 40x. For cell viability assays, OVCAR3 and OVCAR3CIS (3.0×10^4 cells/mL) or SKOV3ip1and SKOV3ip1CIS (3.5×10^4 cells/mL) were seeded into 96-well plates, and 24 hours later, siRNA transfection was performed as described above. The next day, the transfection mix was replaced with cisplatin (CIS) (2.5 uM final concentration dissolved in regular cell culture media) and after forty-eight hours, the medium was removed, and Alamar blue dye (Invitrogen, Thermo Fisher Scientific, Eugene, OR, USA) was added following the manufacturer's instructions. Optical density (OD) was measured, and percentages of cell viability were calculated after blank OD subtraction. Untreated cells were assessed as 100% cell viability.

SKOV3ip1CIS cells = assay: Colony formation assay after siRNA transfection; assay type: cell-based, human; conditions: SKOV3ip1CIS (FIG. 8B)
Experimental: as §1
OVCAR3CIS cells (3.0×10^4 cells/mL) or SKOV3ip1CIS (3.0×10^4 cells/mL) were seeded into 12-well plates. Twenty-four hours later, cells were transfected with 100 nM (final concentration) of each siRNA. […] Colonies of at least 50 cells were counted using a light microscope (CKX41: Olympus, Center Valley, PA, USA) with a total magnification of 40x. […] Optical density (OD) was measured, and percentages of cell viability were calculated after blank OD subtraction. Untreated cells were assessed as 100% cell viability.

OVCAR3CIS cells [3] = assay: Western blot of apoptotic-related and cell-cycle related proteins; assay type: cell-based; conditions: vs NC-siRNA
Experimental: Cell pellets were lysed with complete lysis buffer and total protein concentration […]. Protein samples were separated by SDS-PAGE, blotted onto nitrocellulose membranes, blocked in either 5% non-fat dry milk (Bio-Rad) or 5% BSA (HyClone), and probed with the appropriate dilution of corresponding primary antibody. Membranes were rinsed and incubated with corresponding HRP-conjugated secondary antibody, followed by enhanced chemiluminescence and autoradiography.

OVCAR3CIS cells [4] = assay: Colony formation assay after siRNA transfection; assay type: cell-based; conditions: single siRNA, vs NC-siRNA
Experimental: as §1
OVCAR3CIS cells (3.0×10^4 cells/mL) or SKOV3ip1CIS (3.0×10^4 cells/mL) were seeded into 12-well plates. Twenty-four hours later, cells were transfected with 100 nM (final concentration) of each siRNA. […] Colonies of at least 50 cells were counted using a light microscope (CKX41: Olympus, Center Valley, PA, USA) with a total magnification of 40x. […] Optical density (OD) was measured, and percentages of cell viability were calculated after blank OD subtraction. Untreated cells were assessed as 100% cell viability. […]

For “CASC10-siRNA (2): siRNA targeting CASC10 RNA, SEQ ID NO 3 and 4: 5′ GACUCUUGGAUCCAAGUUU(dT)(dT) 3′ / 5′ AAACUUGGAUCCAAGAGUC(dT)(dT) 3′ (chain 1 GACUCUUGGAUCCAAGUUUNN; chain 2 AAACUUGGAUCCAAGAGUCNN; 3' dTdT overhangs, chemistry not fully specified)”, the differentially expressed genes (OVCAR3CIS cells [1]; log2 fold change >1.2 or <−1.2, p-value ≤0.01, vs NC-siRNA) was 32, the “differentially abundant transcripts exclusive of CASC10-siRNA (2) compared with NC-siRNA” value (OVCAR3CIS cells [1]; padj <0.01) was 1,400 and the reduction of invasiveness (OVCAR3CIS cells [2]) was 62%. For the same substance, the “decrease of CASC10 relative expression” value (CASC10) was 75%, the cell viability (OVCAR3 cells) was “did not significantly reduce cell viability” and the “reduction in the number of colonies” value (SKOV3ip1CIS cells) was 86%. For the same substance, the Bcl-2 protein (OVCAR3CIS cells [3]) was “strong reduction”, the CDK4 protein (OVCAR3CIS cells [3]) was “reduction” and the “Cyclin E1 protein” value (OVCAR3CIS cells [3]) was “reduction”. The “cleaved Caspase-3 protein” value (OVCAR3CIS cells [3]) was “significant increase”, the “cleaved Caspase-9 protein” value (OVCAR3CIS cells [3]) was “significant increase” and the “cleaved PARP-1 protein” value (OVCAR3CIS cells [3]) was “significant increase”. For the same substance, the p27 protein levels (OVCAR3CIS cells [3]) was “reduction” and the “reduction in the number of colonies” value (OVCAR3CIS cells [4]) was 54%.
